Measured values published in PMC2606880 (Diabetes, 2009).
Read-outs that look alike come from different tables or passages of the source. Values belong to the molecule of their own block, whether it stands above or below them.

Experiments:
[1] = cited from earlier work
[2] = tested on: type 2 diabetic patients; details: 4 weeks of treatment; cited from earlier work
[3] = tested on: conscious dogs; assay: Tolerability of oral vildagliptin; type: in vivo, dog; details: vildagliptin 1 mg/kg by stomach gavage; all animals
[4] = tested on: conscious dogs; type: in vivo, dog; details: for Net hepatic alanine uptake / Net hepatic glycerol uptake / Plasma free fatty acid level: vildagliptin 1 mg/kg oral, mean ± SE, n = 6
[5] = tested on: conscious dogs; assay: Plasma pancreatic hormone levels; type: in vivo, dog; details: vildagliptin-treated group
[6] = tested on: conscious dogs; type: in vivo, dog; details: vildagliptin-treated group
[7] = basal period, mean ± SEM, n = 6

- clearance (dog, in vivo, iv): 2.28 ± 0.3 L/h/kg
SMILES: CC[C@H](C)[C@H](NC(=O)[C@H](Cc1ccccc1)NC(=O)[C@H](CCC(=O)O)NC(=O)[C@H](CCCCN)NC(=O)[C@H](C)NC(=O)[C@H](C)NC(=O)[C@H](CCC(N)=O)NC(=O)CNC(=O)[C@H](CCC(=O)O)NC(=O)[C@H](CC(C)C)NC(=O)[C@H](Cc1ccc(O)cc1)NC(=O)[C@H](CO)NC(=O)[C@H](CO)NC(=O)[C@@H](NC(=O)[C@H](CC(=O)O)NC(=O)[C@H](CO)NC(=O)[C@@H](NC(=O)[C@H](Cc1ccccc1)NC(=O)[C@@H](NC(=O)CNC(=O)[C@H](CCC(=O)O)NC(=O)[C@H](C)NC(=O)[C@@H](N)Cc1c[nH]cn1)[C@@H](C)O)[C@@H](C)O)C(C)C)C(=O)N[C@@H](C)C(=O)N[C@@H](Cc1c[nH]c2ccccc12)C(=O)N[C@@H](CC(C)C)C(=O)N[C@H](C(=O)N[C@@H](CCCCN)C(=O)NCC(=O)N[C@@H](CCCNC(=N)N)C(N)=O)C(C)C [GLP-1, Glucagon-like peptide 1]
- share of the kidneys in the degradation of intact GLP-1 [1]: 10–20%

SMILES: N#C[C@@H]1CCCN1C(=O)CNC12CC3CC(CC(O)(C3)C1)C2 [Vildagliptin]
- increase in the rise in active GLP-1 after meals [2]: twofold or greater increase
- tolerability [3]: well tolerated
- Free fatty acid and glycerol levels lower than in control ([4]; basal period, vildagliptin-treated group): ~25%
- Net hepatic alanine uptake ([4]; experimental period 60 min): 1.8 ± 0.2 µmol/kg/min
- Net hepatic glycerol uptake ([4]; experimental period 60 min): 0.5 ± 0.2 µmol/kg/min
- Plasma free fatty acid level ([4]; experimental period 60 min): 111 ± 23 µmol/L
- Net hepatic alanine uptake ([4]; experimental period 120 min): 2.0 ± 0.5 µmol/kg/min
- Net hepatic glycerol uptake ([4]; experimental period 120 min): 0.5 ± 0.1 µmol/kg/min
- Plasma free fatty acid level ([4]; experimental period 120 min): 88 ± 26 µmol/L
- Net hepatic alanine uptake ([4]; experimental period 180 min): 2.2 ± 0.2 µmol/kg/min
- Net hepatic glycerol uptake ([4]; experimental period 180 min): 0.4 ± 0.2 µmol/kg/min
- Plasma free fatty acid level ([4]; experimental period 180 min): 71 ± 25 µmol/L
- Net hepatic alanine uptake ([4]; experimental period 210 min): 2.4 ± 0.2 µmol/kg/min
- Net hepatic glycerol uptake ([4]; experimental period 210 min): 0.5 ± 0.2 µmol/kg/min
- Plasma free fatty acid level ([4]; experimental period 210 min): 82 ± 31 µmol/L
- Net hepatic alanine uptake ([4]; experimental period 240 min): 2.5 ± 0.3 µmol/kg/min
- Net hepatic glycerol uptake ([4]; experimental period 240 min): 0.3 ± 0.1 µmol/kg/min
- Plasma free fatty acid level ([4]; experimental period 240 min): 66 ± 15 µmol/L
- increase in arterial and portal vein GLP-1 concentrations (vildagliptin 1 mg/kg oral vs control): 70%
- increase of arterial plasma C-peptide ([5]; basal period to last 3 h): 3.6 fold
- Hepatic sinusoidal plasma glucagon level [5, 7]: 43 ± 3 pg/mL
- arterial plasma C-peptide level [5, 7]: 0.39 ± 0.04 ng/mL
- arterial plasma insulin [5, 7]: 6 ± 1 μU/ml
- hepatic sinusoidal plasma insulin [5, 7]: 17 ± 3 μU/ml
- Hepatic sinusoidal plasma glucagon level ([5]; experimental period, mean ± SEM, n = 6): 23 ± 4 pg/mL
- increase of arterial plasma insulin from basal period to last 3 h [5]: 5.5 fold
- increase of hepatic sinusoidal plasma insulin from basal period to last 3 h [5]: 5.4 fold
- average hepatic insulin level greater than in the control group ([5]; not statistically significant): 15 μU/ml
- increase of nonhepatic glucose uptake from basal ([6]; basal period to last 3 h, not significant vs control): 8.1 ± 1.4 mg/kg/min
- Nonhepatic glucose uptake (non-HGU) [6, 7]: 2.3 ± 0.3 mg/kg/min
- net hepatic glucose balance (positive = output) [6, 7]: 2.1 ± 0.2 mg/kg/min
- Nonhepatic glucose uptake (non-HGU) ([6]; last 3 h, mean ± SEM, n = 6): 10.4 ± 1.4 mg/kg/min
- net hepatic glucose fractional extraction ([6]; last 3 h, mean ± SEM, n = 6, P < 0.05): 0.06 ± 0.01
